These results are taken from patent US20250041439A1, “ANTIBODY-DRUG CONJUGATES” (SPIREA LIMITED, priority 2021, published 2025).

The subject of assay [1] is JIMT-1 (Her2 Low, human breast carcinoma). Nature of the assay: CellTiter-Glo luminescence viability assay with MMAE ADC. The following applies: JIMT-1 cells, 96 hours, n = 3; read-out: IC50 (anti-proliferative effect). The assay is classed as cell-based. The procedure: (§1) The CellTiter-Glo© luminescence viability assay was used to measure the inhibitory effect of the MMAE ADC prepared in Example 3 on cell growth.
(§2) Her2^High SK-BR-3 (human breast adenocarcinoma, ATCC® HTB-30, Manassas, VA, United States) were cultured in McCoy's 5A medium supplemented with 200 U/mL penicillin, 200 μg/mL streptomycin and 20% heat-inactivated fetal bovine serum. Her2^Low JIMT-1 (human breast carcinoma, ACC589, DSMZ, Braunschweig, Germany) were cultured in DMEM GlutaMax® medium supplemented with 200 U/mL penicillin, 200 μg/mL streptomycin and 10% heat-inactivated fetal bovine serum. Her2^Negative NCI-H520 (human lung squamous cell carcinoma, ATCC®-HTB-182) were cultured in RPMI medium supplemented with 200 U/mL penicillin, 200 μg/mL streptomycin and 10% heat-inactivated fetal bovine serum.
(§3) SK-BR-3, JIMT-1 and NCI-H520 cells were seeded in 96-well plates at a density of 5×10^3, 2×10^3 and 2.5×10^3 cells in 100 μL growth medium, respectively, and incubated for 24 hours at 37° C./5% CO2.
(§4) After 96 hours in the presence of ADCs or controls, viability was detected using the CellTiter-Glo® luminescence assay. Assay plates were equilibrated at room temperature for 20 minutes before addition of 100 μL CellTiter-Glo® reagent per well. The plates were then mixed for 3 minutes at 300 rpm to assist cell lysis and incubated for a further 20 minutes at room temperature to stabilise the luminescence signal. Luminescence was recorded using a SpectraMax i3x plate reader with a default integration time of 0.5 s/well.
On the technique in general: Cellular ATP, detected with luciferase, serves as a proxy for viable cell number.

Assay [2] concerns SK-BR-3 (Her2 High, human breast adenocarcinoma). The description is as above. The assay is classed as cell-based. The following applies: SK-BR-3 cells, 96 hours, n = 3; read-out: IC50 (anti-proliferative effect). The method, then: as §1, §2, §3, §4
Assay [3] concerns NCI-H520 (Her2 Negative, human lung squamous cell carcinoma). Described as above. The assay is classed as cell-based. The following applies: NCI-H520 cells, 96 hours, n = 3; read-out: IC50 (anti-proliferative effect). The procedure:
as §1, §2, §3, §4

The test system of assay [4] is SK-BR-3 cells (HER2 High, human breast adenocarcinoma). Nature of the assay: CellTiter-Glo luminescence viability assay with SN-38 ADCs. It is filed as cell-based. Conditions: n = 3, read-out: SK-BR-3 IC50 Mean (±St. Dev.). The method, then:
The plates were then mixed for 3 minutes at 300 rpm to assist cell lysis and incubated for a further 20 minutes at room temperature to stabilise the luminescence signal.

The test system of assay [5] is NCI-N87 human gastric cancer CDX model. The assay is classed as in vivo. Conditions: 3 mg/kg IV single dose, PG-D42. The method, then:
The objective of this study was to evaluate the in vivo anti-tumour efficacy of the MMAE ADC of Example 3 in the subcutaneous NCI-N87 human gastric cancer CDX model in female BALB/c Nude mice.
• Species: Mus musculus • Strain: BALB/c Nude • Age: 6-8 weeks • Sex: female • Body weight: 18-22 g
The NCI-N87 tumor cells (ATCC, Manassas, VA, cat #CRL-5822) were maintained in vitro as a monolayer culture in RPMI-1640 medium supplemented with 10% fetal bovine serum, 1% Antibiotic-Antimycotic, at 37° C. in an atmosphere of 5% CO2 in air. The tumour cells were routinely subcultured twice weekly by trypsin-EDTA treatment. The cells growing in an exponential growth phase were harvested and counted for tumour inoculation.
Each mouse for efficacy study was inoculated subcutaneously at the right flank with NCI-N87 tumour cells (10×10^6) in 0.2 mL of PBS supplemented with Matrigel (1:1) for tumour development. Treatments were started on day 6 after tumour inoculation when the average tumour size reached approximately 198 mm^3. […]
All the procedures related to animal handling, care and the treatment in the study were performed according to the guidelines approved by the Institutional Animal Care and Use Committee (IACUC) of the CRO following the guidance of the Association for Assessment and Accreditation of Laboratory Animal Care (AAALAC). At the time of routine monitoring, the animals were daily checked for any effects of tumour growth and treatments on normal behaviour such as mobility, food and water consumption (by looking only), body weight gain/loss (body weights were measured twice weekly), eye/hair matting and any other abnormal effect as stated in the protocol. Death and observed clinical signs were recorded on the basis of the numbers of animals within each subset.
The major endpoint was to see if the tumour growth could be delayed or mice could be cured. Tumour size was measured twice weekly in two dimensions using a calliper, and the volume was expressed in mm^3 using the formula: V=0.5a×b^2 where a and b are the long and short diameters of the tumour, respectively. […]

Like-named read-outs stand apart in the source and are kept apart here. Non-standard residues stand in square brackets, D forms with d. Residues, ends and D or L forms follow the SMILES beside them. *: point of attachment. Dolaproine = CO[C@@H]([C@@H]1CCCN1)[C@@H](C)C(=O)O; Dil = CC[C@H](C)[C@H](NC)[C@@H](CC(=O)O)OC; X1 = C[C@@H](N*)[C@@H](O)c1ccccc1; NMeV = CN[C@H](C(=O)O)C(C)C

For orientation: IC50 means the concentration needed to halve the response being measured. On to `CC[C@H](C)[C@@H]([C@@H](CC(=O)N1CCC[C@H]1[C@H](OC)[C@@H](C)C(=O)N[C@H](C)[C@@H](O)c1ccccc1)OC)N(C)C(=O)[C@@H](NC(=O)[C@@H](NC)C(C)C)C(C)C` [MMAE, monomethyl auristatin E] (H-[NMeV]V[Dil][Dolaproine]-X1), for which the values for the IC50 in assay [1], in assay [2] and in assay [3] were 0.126 ± 0.053 nM, 0.284 ± 0.138 nM and 0.334 ± 0.114 nM, respectively.
For the compound `CCc1c2c(nc3ccc(O)cc13)-c1cc3c(c(=O)n1C2)COC(=O)[C@]3(O)CC` [SN-38], the IC50 came out at 5.78 ± 2.01 nM in assay [4] (9 h exposure (limited), then further 96 hours) and 1.17 ± 0.09 nM in assay [4] (96 h exposure (continuous)).
A word on the T/C: it is the result in the treated group divided by that in the control group, in per cent. Consider T-DM1, for which, in assay [5], the T/C is given as 29.37%, the TGI was 78.58% and the mean tumour volume is 574 mm^3.
